The test system of one assay is NB4 mtTP53, leukemia. The experiment in a line: WST-1 assay. The format is cell-based. The conditions noted are these: 72 hours. As for the experimental part: (§1) Adherent cell lines were cultured overnight prior to the addition of the compound of Example 1, whereas non-adherent cell lines were treated immediately after seeding. TP53 status in each cell line is indicated. All cells were grown in 10% FBS. p53 wild type or mutant status (wtTP53 or mtTP53) and tumor cell line origin are indicated. The results obtained are shown below and in FIG. 10.
A general note: Formazan colour is commonly taken as a measure of viable cells.

The subject of a further assay is JVM2 wtTP53, lymphoma. The experiment in a line: WST-1 assay. The format is cell-based. To be noted: 72 hours. As for the experimental part: as §1
For assay [1], the system named is HCT116 wtTP53, colon cancer. The assay is described as follows: WST-1 assay. The format is cell-based. To be noted: 72 hours. As for the experimental part: as §1
Another assay relates to Ramos mtTP53, lymphoma. The assay is described as follows: WST-1 assay. The format is cell-based. To be noted: 72 hours. As for the experimental part:
as §1

For a further assay, the system named is U2OS wtTP53, sarcoma. The assay is described as follows: WST-1 assay. To be noted: 72 hours. The format is cell-based. As for the experimental part: as §1
Assay [2] concerns HT29 mtTP53, colon cancer. The assay is described as follows: WST-1 assay. The format is cell-based. To be noted: 72 hours. As for the experimental part:
as §1

The subject of another assay is RKO wtTP53, colon cancer. The assay is described as follows: WST-1 assay. The format is cell-based. The conditions noted are these: 72 hours. The method, then: as §1
Another assay concerns A375 wtTP53, melanoma. The experiment in a line: WST-1 assay. The format is cell-based. To be noted: 72 hours. As for the experimental part:
as §1

For a further assay, the system named is L428 mtTP53, lymphoma. The assay is described as follows: WST-1 assay. The format is cell-based. To be noted: 72 hours. As for the experimental part: as §1
For another assay, the system named is K562 mtTP53, leukemia. The assay is described as follows: WST-1 assay. The format is cell-based. The conditions noted are these: 72 hours. The method, then: as §1
The next assay deals with MV4-11 wtTP53, leukemia. The experiment in a line: WST-1 assay. To be noted: 72 hours. The format is cell-based. The method, then:
as §1

For the next assay, the system named is A431 mtTP53, skin cancer. The assay is described as follows: WST-1 assay. The format is cell-based. To be noted: 72 hours. As for the experimental part: as §1
The next assay has as its system ARN8s wtTP53, melanoma. The experiment in a line: WST-1 assay. The format is cell-based. To be noted: 72 hours. As for the experimental part:
TP53 status in each cell line is indicated. All cells were grown in 10% FBS. p53 wild type or mutant status (wtTP53 or mtTP53) and tumor cell line origin are indicated.

Assay [3] has as its system p21 expression in ARN8 melanoma cells. The assay is described as follows: Levels of p53 and downstream targets (hdm2, pig3, p21) with nutlin-3. The format is cell-based. The conditions noted are these: 1 h then 2 μM nutlin-3 for 18 h, FIG. 4. The method, then: Levels of p53 and downstream targets hdm2, pig3 (band indicated by arrow) and p21 were determined. Levels of gapdh were used to monitor protein loading. Pig3 is a known pro-apoptotic protein.

Another assay concerns ARN8 melanoma cells. The experiment in a line: Sulforhodamine B assay of cancer cell growth and/or viability. The format is cell-based. The conditions noted are these: ARN8; 2 μM; 72 hours; absence of excess uridine. As for the experimental part:
ARN8 melanoma cells are seeded at a density of 500 cells per well of a 96 well plate. Following 24 hours of incubation, cells are treated with increasing concentrations of the compound of Example 8 in the absence or presence of excess uridine (100 micromolar). Cells are incubated for 72 hours after which the growth medium is removed from the cells and replaced by […] of 1× sterile PBS and 50 μL of 40% trichloroacetic acid in dH2O. Samples are incubated at 4° C. for 1 h to fix the cells. The plate is then washed with 3 changes of water with all liquid allowed to drain from the plate. […] of 0.1% sulforhodamine B in 1% acetic acid in H2O is added to each well and incubated for 30 minutes. Excess dye is washed out with three changes of 1% acetic acid in H2O with all liquid allowed to drain from the plate. The remaining dye is solubilized in 100 microliters of 10 mM un-buffered basic Tris per well and absorbance read at 570 nm.
In general terms: The SRB assay estimates cell density from bound dye.

In assay [4] the test system is p53 synthesis in ARN8 melanoma cells. The experiment in a line: p53 synthesis, 35S-Met pulse labelling and p53 immunoprecipitation. The format is cell-based. To be noted: 5 h treatment, 35S-Met 30 minutes, FIG. 3. As for the experimental part: Incorporation of 35S-Met in the p53 immunoprecipitate was determined by autoradiography. This experiment was performed in duplicate (Exp. 1 and Exp. 2).

Assay [5] deals with human dihydroorotate dehydrogenase (DHODH) (Homo sapiens (Human), UniProt Q02127). The experiment in a line: DHODH enzyme assay, Assay A (DCIP absorbance). The format is biochemical. The conditions noted are these: 6 nM recombinant human DHODH. As for the experimental part: Inhibition of human dihydroorotate dehydrogenase (DHODH) by example compounds as described herein was determined using one of two assays as described below.
Chain of human dihydroorotate dehydrogenase (DHODH) (Q02127 29-395): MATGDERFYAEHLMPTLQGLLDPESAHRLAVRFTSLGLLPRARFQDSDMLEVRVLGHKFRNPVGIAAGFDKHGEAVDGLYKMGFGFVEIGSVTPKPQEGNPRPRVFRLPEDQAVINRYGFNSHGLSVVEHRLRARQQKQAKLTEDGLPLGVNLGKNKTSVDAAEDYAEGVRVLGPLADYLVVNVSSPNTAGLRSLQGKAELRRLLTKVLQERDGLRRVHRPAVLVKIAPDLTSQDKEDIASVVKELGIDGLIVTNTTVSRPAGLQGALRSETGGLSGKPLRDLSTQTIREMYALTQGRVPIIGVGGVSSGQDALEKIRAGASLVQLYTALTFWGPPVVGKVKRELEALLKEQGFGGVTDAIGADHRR
DHODH enzyme assays were performed with 6 nM recombinant human DHODH (purified essentially as described by Walse et. al., Biochemistry, 47, 8929-8936 (2008)). The reaction mixture consisted of 1 mM DL-dihydroorotic acid (#D7003, Sigma-Aldrich), 100 μM 3,4-dimethoxy-5-methyl-p-benzoquinone (#D9150, Sigma-Aldrich), and 100 μM 2,6-dichlorophenolindophenol sodium salt (DCIP) (#D1878, Sigma-Aldrich) in enzyme buffer (50 mM Tris-HCl pH 8.0, 0.1% Triton X-100, 150 mM KCl). A stock solution of 20 mM DCIP was prepared in enzyme buffer and filtered through Whatman paper just before use. Loss in absorbance by chromogen DCIP was measured at 595 nm at RT every 3 min for an hour.

For assay [6], the system named is uridine uptake in ARN8 cells. The experiment in a line: Tritiated uridine uptake. The format is cell-based. To be noted: 15 min preincubation, 5,6-3H-Uridine 60 sec, FIG. 7. As for the experimental part:
ARN8 cells were incubated with increasing concentrations of nilotinib and tritiated uridine. The amount of tritium label in cells was determined by scintillation counting. 200 000 ARN8 cells/well were seeded on 6-well plates. 24 h post-seeding, the cells were rinsed twice with transport buffer, pH 7.4 (20 mM Tris/HCl, 130 mM NaCl, 3 mM K2HPO4, 1 mM MgCl2, 5 mM Glucose) and then incubated for 15 min at 37° C. with compounds (or vehicle) diluted in transport buffer. 5,6-3H-Uridine (PerkinElmer, #NET367001MC) was added to a final concentration of 4 μCi/mL for 60 sec, and then removed with 5 quick washes with 1 mM ice-cold unlabelled uridine (Sigma, #U3003). Samples (in triplicate) were harvested in 10% SDS (Sigma) and transferred to a flexible 24-well microplate (Perkin Elmer, #1450-402). Optiphase Supermix scintillation buffer (PerkinElmer, #1200-439) was added and the counts per minute measured for 3 min.

The record followed here is patent US10889564B2, “Tetrahydroindazoles and medical uses thereof” (Genase Therapeutics B.V., priority 2015, dated 2021).

Broadly, the viability is the share of living cells, or the viability signal relative to a control. Low readings indicate a greater loss of cells, high ones better survival. As for `O=C(NC1CCCc2c1cnn2-c1ccccc1F)c1ccccn1` (centres unmarked) [Example 1, N-(1-(2-Fluorophenyl)-4,5,6,7-tetrahydro-1H-indazol-4-yl)picolinamide], the “metabolically active cells, percentage relative to the vehicle (DMSO) control” value in the assay with NB4 mtTP53, leukemia (1.23 μM) is listed as 79.47%; in the assay with NB4 mtTP53, leukemia (3.70 μM), 65.73%; in the assay with NB4 mtTP53, leukemia (11.11 μM), 42.77%; with NB4 mtTP53, leukemia (33.30 μM) it was 36.19%; in the assay with JVM2 wtTP53, lymphoma (1.23 μM), 86.30%; with JVM2 wtTP53, lymphoma (3.70 μM), 75.36%. For the same molecule, the “metabolically active cells, percentage relative to the vehicle (DMSO) control” value with JVM2 wtTP53, lymphoma (11.11 μM) is recorded as 44.68%; in the assay on JVM2 wtTP53, lymphoma (33.30 μM), 38.31%; in [1] (1.23 μM), 75.69%; in assay [1] (3.70 μM), 50.13%; in assay [1] (11.11 μM), 28.40%; in assay [1] (33.30 μM), 14.51%. The “metabolically active cells, percentage relative to the vehicle (DMSO) control” value in the assay on Ramos mtTP53, lymphoma (1.23 μM) is on record as 87.94%; with Ramos mtTP53, lymphoma (3.70 μM) it was 54.16%; in the assay on Ramos mtTP53, lymphoma (11.11 μM), 42.35%; in the assay on Ramos mtTP53, lymphoma (33.30 μM), 40.94%; in the assay with U2OS wtTP53, sarcoma (1.23 μM) it was 98.88%; with U2OS wtTP53, sarcoma (3.70 μM), 70.03%. In addition, the “metabolically active cells, percentage relative to the vehicle (DMSO) control” value was found to be 51.63% with U2OS wtTP53, sarcoma (11.11 μM); 50.16% in the assay with U2OS wtTP53, sarcoma (33.30 μM); 70.23% in [2] (1.23 μM); 23.19% in [2] (3.70 μM); 25.66% in [2] (11.11 μM); 12.11% in [2] (33.30 μM). Further, the “metabolically active cells, percentage relative to the vehicle (DMSO) control” value was 83.37% with RKO wtTP53, colon cancer (1.23 μM); 42.62% in the assay on RKO wtTP53, colon cancer (3.70 μM); 36.36% in the assay on RKO wtTP53, colon cancer (11.11 μM); 29.16% in the assay with RKO wtTP53, colon cancer (33.30 μM); 85.95% in the assay on A375 wtTP53, melanoma (1.23 μM); 50.62% with A375 wtTP53, melanoma (3.70 μM). The “metabolically active cells, percentage relative to the vehicle (DMSO) control” value in the assay on A375 wtTP53, melanoma (11.11 μM) came out at 45.86%; in the assay on A375 wtTP53, melanoma (33.30 μM), 32.67%; in the assay on L428 mtTP53, lymphoma (1.23 μM), 67.78%; in the assay with L428 mtTP53, lymphoma (3.70 μM), 33.84%; in the assay on L428 mtTP53, lymphoma (11.11 μM), 32.76%; with L428 mtTP53, lymphoma (33.30 μM), 34.80%. For the same molecule, the “metabolically active cells, percentage relative to the vehicle (DMSO) control” value with K562 mtTP53, leukemia (1.23 μM) was 63.91%; with K562 mtTP53, leukemia (3.70 μM) it was 57.69%; in the assay on K562 mtTP53, leukemia (11.11 μM) it was 55.28%; in the assay on K562 mtTP53, leukemia (33.30 μM) it was 53.35%; with MV4-11 wtTP53, leukemia (1.23 μM), 60.26%; in the assay on MV4-11 wtTP53, leukemia (3.70 μM) it was 36.85%. Moreover, the “metabolically active cells, percentage relative to the vehicle (DMSO) control” value is 19.73% in the assay with MV4-11 wtTP53, leukemia (11.11 μM); 15.79% in the assay with MV4-11 wtTP53, leukemia (33.30 μM); 76.99% in the assay on A431 mtTP53, skin cancer (1.23 μM); 52.31% in the assay with A431 mtTP53, skin cancer (3.70 μM); 36.84% in the assay with A431 mtTP53, skin cancer (11.11 μM); 27.93% in the assay on A431 mtTP53, skin cancer (33.30 μM). Also, the “metabolically active cells, percentage relative to the vehicle (DMSO) control” value came to 68.69% in the assay on ARN8s wtTP53, melanoma (1.23 μM); 40.86% with ARN8s wtTP53, melanoma (3.70 μM); 35.13% in the assay on ARN8s wtTP53, melanoma (11.11 μM). Further, the “nutlin-3 induced p21 expression” value in [3] is listed as “Loss of nutlin-3 induced p21 expression”. This molecule returned a viability at 2 µM with ARN8 melanoma cells of 53%. For the same molecule, in assay [4], the p53 synthesis result was “increases p53 synthesis”.
Usually IC50 stands for the concentration that inhibits the measured activity by half. Turning to `CCc1cc(C(=O)NC2CCCc3c2cnn3-c2ccc(F)cc2F)no1` (centres unmarked) [Example 10, N-[1-(2,4-difluorophenyl)-4,5,6,7-tetrahydro-1H-indazol-4-yl]-5-ethyl-3-isoxazolecarboxamide], the IC50 in assay [5] came to 2.44 µM. The viability at 2 µM in the assay on ARN8 melanoma cells came out at 92%.
The like results for `CSc1nc(C(=O)NC2CCCc3c2cnn3-c2ccc(F)cc2F)cs1` (centres unmarked) [Example 11, N-[1-(2,4-difluorophenyl)-4,5,6,7-tetrahydro-1H-indazol-4-yl]-2-(methylthio)-1,3-thiazole-4-carboxamide] were, in that order, 8.2 µM and 93%.
Take `Cc1cn(-c2cc(NC(=O)c3ccc(C)c(Nc4nccc(-c5cccnc5)n4)c3)cc(C(F)(F)F)c2)cn1` [nilotinib]: in assay [6], the uridine uptake entry is reported as “blocks uridine uptake”.
